Results reported in PubChem BioAssay AID328 (DTP/NCI, 2004).
Inconclusive results and toxic doses are left out.

Test system: BDF1 mice, P388 leukemia ip, median survival T/C
Test: NCI In Vivo Anticancer Drug Screen. Data for tumor model P388 Leukemia (intraperitoneal) in B6D2F1 (BDF1) mice
Details: endpoint: median survival time, higher = longer survival
In short: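 Read-out is survival of treated animals expressed relative to the vehicle group, as a T/C ratio.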

[1] = dose: 50.0 mg/kg/injection, schedule: Q01DX009 (ip), vehicle: saline with Tween-80
[2] = dose: 100.0 mg/kg/injection, schedule: Q01DX009 (ip), vehicle: saline with Tween-80
[3] = dose: 200.0 mg/kg/injection, schedule: Q01DX009 (ip), vehicle: saline with Tween-80
[4] = dose: 100.0 mg/kg/injection, schedule: Q04DX003 (ip), vehicle: saline with Tween-80
[5] = dose: 200.0 mg/kg/injection, schedule: Q04DX003 (ip), vehicle: saline with Tween-80
[6] = dose: 400.0 mg/kg/injection, schedule: Q04DX003 (ip), vehicle: saline with Tween-80
[7] = dose: 50.0 mg/kg/injection, schedule: Q01DX009 (ip), vehicle: Klucel (hydroxypropylcellulose) (HPC)
[8] = dose: 100.0 mg/kg/injection, schedule: Q01DX009 (ip), vehicle: saline
[9] = dose: 100.0 mg/kg/injection, schedule: Q04DX003 (ip), vehicle: saline
[10] = dose: 200.0 mg/kg/injection, schedule: Q01DX009 (ip), vehicle: saline
[11] = dose: 200.0 mg/kg/injection, schedule: Q04DX003 (ip), vehicle: saline

SMILES: CCCC1([N+](C)(C)C)CSC1CC (configuration not stated)
- T/C (dose: 12.5 mg/kg/injection, schedule: Q04DX002 (ip), vehicle: saline): 105 % of control
- T/C (dose: 25.0 mg/kg/injection, schedule: Q04DX002 (ip), vehicle: saline): 103 % of control
- T/C (dose: 50.0 mg/kg/injection, schedule: Q04DX002 (ip), vehicle: saline): 96 % of control

SMILES: COc1cccc(CCCC(=O)C(C)(C)S(C)=O)c1 (configuration not stated)
- T/C [1]: 103 % of control
- T/C [2]: 95 % of control
- T/C [3]: 103 % of control

SMILES: C=CCOC(=O)C1c2ccccc2Cc2ccccc21
- T/C [2]: 110 % of control
- T/C [4]: 100 % of control
- T/C [3]: 115 % of control
- T/C [5]: 100 % of control
- T/C (dose: 400.0 mg/kg/injection, schedule: Q01DX009 (ip), vehicle: saline with Tween-80): 110 % of control
- T/C [6]: 109 % of control

SMILES: NC(N)=N/N=C\c1c2ccccc2cc2ccccc12
- T/C (dose: 3.13 mg/kg/injection, schedule: Q01DX009 (ip), vehicle: other): 155 % of control
- T/C (dose: 6.25 mg/kg/injection, schedule: Q01DX009 (ip), vehicle: other): 155 % of control
- T/C (dose: 12.5 mg/kg/injection, schedule: Q01DX009 (ip), vehicle: other): 157 % of control

SMILES: CCN1CSC(=S)N(CC)C1
- T/C (dose: 12.5 mg/kg/injection, schedule: Q01DX009 (ip), vehicle: Klucel (hydroxypropylcellulose) (HPC)): 110 % of control
- T/C (dose: 25.0 mg/kg/injection, schedule: Q01DX009 (ip), vehicle: Klucel (hydroxypropylcellulose) (HPC)): 110 % of control
- T/C (dose: 25.0 mg/kg/injection, schedule: Q01DX009 (ip), vehicle: saline with Tween-80): 109 % of control
- T/C (dose: 25.0 mg/kg/injection, schedule: Q04DX003 (ip), vehicle: Klucel (hydroxypropylcellulose) (HPC)): 95 % of control
- T/C (dose: 37.5 mg/kg/injection, schedule: Q01DX009 (ip), vehicle: saline with Tween-80): 109 % of control
- T/C [7]: 110 % of control
- T/C [1]: 109 % of control
- T/C (dose: 50.0 mg/kg/injection, schedule: Q04DX003 (ip), vehicle: Klucel (hydroxypropylcellulose) (HPC)): 87 % of control
- T/C (dose: 75.0 mg/kg/injection, schedule: Q01DX009 (ip), vehicle: saline with Tween-80): 119 % of control
- T/C [2]: 122 % of control

SMILES: C/C(=C\Br)CO
- T/C (dose: 50.0 mg/kg/injection, schedule: Q04DX003 (ip), vehicle: saline): 90 % of control
- T/C [8]: 105 % of control
- T/C [9]: 105 % of control
- T/C [10]: 95 % of control
- T/C [11]: 90 % of control

SMILES: NC(Cc1ccc(O)cc1)C(=O)O (configuration not stated)
- T/C [2]: 100 % of control
- T/C [4]: 100 % of control
- T/C [3]: 92 % of control
- T/C [5]: 91 % of control
- T/C [6]: 95 % of control

SMILES: O=S1(=O)CCN(C2CCCC2)CC1
- T/C [7]: 104 % of control
- T/C (dose: 100.0 mg/kg/injection, schedule: Q01DX009 (ip), vehicle: Klucel (hydroxypropylcellulose) (HPC)): 121 % of control
- T/C (dose: 200.0 mg/kg/injection, schedule: Q01DX009 (ip), vehicle: Klucel (hydroxypropylcellulose) (HPC)): 111 % of control

SMILES: CCS(=O)(=O)c1cccc2nncn12
- T/C (dose: 100.0 mg/kg/injection, schedule: Q01DX001 (ip), vehicle: saline with Tween-80): 108 % of control
- T/C (dose: 200.0 mg/kg/injection, schedule: Q01DX001 (ip), vehicle: saline with Tween-80): 106 % of control
- T/C (dose: 400.0 mg/kg/injection, schedule: Q01DX001 (ip), vehicle: saline with Tween-80): 100 % of control

SMILES: COC(=O)C1(C)CSCCC1=O (configuration not stated)
- T/C [8]: 105 % of control
- T/C [9]: 100 % of control
- T/C [10]: 105 % of control
- T/C [11]: 100 % of control
- T/C (dose: 400.0 mg/kg/injection, schedule: Q01DX009 (ip), vehicle: saline): 95 % of control
- T/C (dose: 400.0 mg/kg/injection, schedule: Q04DX003 (ip), vehicle: saline): 95 % of control
